Active and inactive are the calls of the source. No cut-off for these calls is given here.
Key:
Rattus norvegicus [1] = species: Rattus norvegicus; assay: Compound was tested for its activity to stimulate rat uterus at concentration of 2-10 e-6 g/mL; Showed very little stimulation; format: functional, organism-based
[2] = Compound was evaluated for the potency ratio in anesthetized rats; format: functional
Cavia porcellus = species: Cavia porcellus; assay: Tested for activity of the 250 ng/ml compound to inhibit ADP-induced aggregation in guinea pig platelet rich plasma; Inactive; format: functional, organism-based
Rattus norvegicus [3] = species: Rattus norvegicus; assay: Tested for enhancement against rythemice contractions and tone of rat portal vein at concentrations ranging from 2*10e-6-1*10e-5 g/mL; Active; format: functional, organism-based

Structure (SMILES): CCCCC[C@@H](O)/C=C/[C@H]1NC(=O)C[C@@H]1CCCCCCC(=O)O
- Activity (Rattus norvegicus [1]): very little stimulation
- Potency Ratio [2]: 0.13
- inhibition (Cavia porcellus): inactive
- Enhancement (Rattus norvegicus [3]): Active

Reference: ChEMBL document CHEMBL1121871, “Azaprostaglandin analogues. Synthesis and biological properties of 11-azaprostaglandin derivatives” (1981)
